Measurements from patent publication US4251439A, “Pharmacologically active peptides” (Eli Lilly and Company, priority 1979, dated 1981).
Where a SMILES comes first, the peptide text is derived from it. Where no end group is shown, it is not given here. [ ]: non-standard residue; d: D form. Phg(4-OMe) = COc1ccc([C@H](N)C(=O)O)cc1; dPhg = N[C@@H](C(=O)O)c1ccccc1; Phg = N[C@H](C(=O)O)c1ccccc1

System: mouse
Experiment: mouse hot plate test (analgesic activity)
Assay type: in vivo
Details: subcutaneous, hot plate 52° C., 15 minutes after administration, latency until jump
Procedure: In this test, a mouse is placed inside an upright acrylic cylinder comprising, as its base, a hot plate surface which is maintained at 52° C. The mouse is given, orally or by subcutaneous injection, a predetermined amount of test compound dissolved or suspended in a suitable carrier, and, 15 minutes after administration of the test compound, the mouse is placed on the hot plate surface. The latency in seconds until the mouse jumps from the hot plate surface is measured. […] This must occur in a dose range which produces no motor incoordination or incapacitation. The following Table records the ED50 results obtained from this test.

| Compound | Analgesic Activity, Hot Plate Test ED50 [mg/kg] |
| --- | --- |
| COc1ccc([C@H](NC(=O)[C@H](Cc2ccccc2)NC(=O)CNC(=O)[C@@H](C)NC(=O)[C@@H](N)Cc2ccc(O)cc2)C(N)=O)cc1 [Example 1, L-Tyrosyl-D-alanyl-glycyl-L-phenylalanyl-L-p-methoxyphenylglycinamide] (H-Y[dA]GF[Phg(4-OMe)]-NH2) | 3.14 |
| C[C@@H](NC(=O)[C@@H](N)Cc1ccc(O)cc1)C(=O)NCC(=O)N[C@@H](Cc1ccccc1)C(=O)N[C@H](C(N)=O)c1ccccc1 [Example 2, L-Tyrosyl-D-alanyl-glycyl-L-phenylalanyl-L-phenylglycinamide] (H-Y[dA]GF[Phg]-NH2) | 0.40 |
| C[C@@H](NC(=O)[C@@H](N)Cc1ccc(O)cc1)C(=O)NCC(=O)N[C@@H](Cc1ccccc1)C(=O)N[C@@H](C(N)=O)c1ccccc1 [Example 3, L-Tyrosyl-D-alanyl-glycyl-L-phenylalanyl-D-phenylglycinamide] (H-Y[dA]GF[dPhg]-NH2) | 0.23 |
| C[C@@H](NC(=O)[C@@H](N)Cc1ccc(O)cc1)C(=O)NCC(=O)N(C)[C@@H](Cc1ccccc1)C(=O)N[C@H](C(N)=O)c1ccccc1 [Example 6, L-Tyrosyl-D-alanyl-glycyl-L-(N-methyl)phenylalanyl-L-phenylglycinamide] | 0.19 |
| C[C@@H](NC(=O)[C@@H](N)Cc1ccc(O)cc1)C(=O)NCC(=O)N(C)[C@@H](Cc1ccccc1)C(=O)N[C@@H](C(N)=O)c1ccccc1 [Example 7, L-Tyrosyl-D-alanyl-glycyl-L-(N-methyl)phenylalanyl-D-phenylglycinamide] | 3.82 |
| CCN(C(=O)CNC(=O)[C@@H](C)NC(=O)[C@@H](N)Cc1ccc(O)cc1)[C@@H](Cc1ccccc1)C(=O)N[C@H](C(N)=O)c1ccccc1 [Example 8, L-Tyrosyl-D-alanyl-glycyl-L-(N-ethyl)phenylalanyl-L-phenylglycinamide] | 0.064 |
| CCCN(C(=O)CNC(=O)[C@@H](C)NC(=O)[C@@H](N)Cc1ccc(O)cc1)[C@@H](Cc1ccccc1)C(=O)N[C@H](C(N)=O)c1ccccc1 [Example 9, L-Tyrosyl-D-alanyl-glycyl-L-(N-n-propyl)phenylalanyl-L-phenylglycinamide] | 0.15 |
| L-Tyrosyl-D-alanyl-glycyl-L-phenylalanyl-D-p-hydroxyphenylglycinamide [Example 4] | 1.0 |
| L-Tyrosyl-D-alanyl-glycyl-L-phenylalanyl-D-phenylglycin-N-methylamide [Example 5] | 0.74 |

System: not given
Experiment: not given
Details: administered parenterally; cited from earlier work

| Compound | useful analgesic activity |
| --- | --- |
| H-Tyr-Gly-Gly-Phe-Met-OH [methionine enkephalin] | practically devoid of any useful analgesic activity |

System: not given
Experiment: not given
Details: in vivo; cited from earlier work

| Compound | analgesic potential |
| --- | --- |
| Y[dA]GF[dF]-OH | limited analgesic potential |

System: mice
Experiment: not given
Details: administration intracerebroventricularly; cited from earlier work

| Compound | analgesic activity |
| --- | --- |
| H-Tyr-Gly-Gly-Phe-Met-OH [methionine enkephalin] | exhibit analgesic activity |
